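Five concentrations, 48 hours, 96-well plates. TGI: total growth inhibition.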 Bounds are passed on as bounds.

The test system of the first assay is M14 melanoma. Description: DTP human tumour cell line panel, 48 h.
Usually TGI stands for the concentration at which net growth stops. A higher TGI goes with less potent growth arrest. Take `N#CC(C#N)=C1CCCS(=O)(=O)c2ccccc21`: the TGI is more than 100 µM.

In a further assay the test system is MCF7 breast. Description: DTP human tumour cell line panel, 48 h.
`Cc1oc2nc(N(C)C)n3nnnc3c2c1C`: the TGI is more than 100 µM.
The same measure, in the same setting: the result for `Cc1nc(Cl)c(CBr)c(Cl)n1` reads 2.17 µM; that for `N#CSCc1cccc(Nc2cc(=O)[nH]c(=O)[nH]2)c1`, 38.9 µM.
On the same count and under the same terms, the result for `COc1ccc2c(c1)C(=O)c1ccccc1C2` reads more than 100 µM; that for `O=c1nc2c(c(-c3cccc(Cl)c3)[nH]1)COC/C2=C\c1cccc(Cl)c1`, more than 100 µM; that for `CC(C)/C(Cl)=N\OC(=O)NNc1ccccc1`, more than 100 µM.
The compound `CN(O)C(=O)Cc1ccc(OCc2cccc(Cl)c2)cc1` came in with a total growth inhibition concentration (TGI) of more than 100 µM.
As to `CC1=CC(=O)N(n2c(C)n[nH]c2=O)C1=O`, the total growth inhibition concentration (TGI) is more than 100 µM.
The same measure, in the same setting: the result for `COC(=O)C1CC(C=[N+](C)C)=C(SC)N1` (centres undefined) reads more than 100 µM; that for `O=c1c2cc(I)ccc2[nH]c(=S)n1Cc1ccccc1`, more than 100 µM.
On the same count and under the same terms, the result for `COc1cccc(-c2nc(-c3cnccn3)n(Cc3ccccc3)n2)c1` reads more than 100 µM; that for `N#Cc1c(OCCF)c2ccccc2n2c1nc1ccccc12`, more than 100 µM; that for `CC(=O)/C(=C/n1c(=S)sc2ccccc21)C(=O)Nc1ccccc1C`, more than 100 µM.
Same read-out and setting: to `CC(C)=CC1C(C(=O)O)C1(C)C` (centres undefined) belongs more than 750 µM.
The compound `CCOC(=O)C1CC(O)C(=O)N1C` (centres undefined) showed a TGI of more than 100 µM.
On the same count and under the same terms, to `COc1cccc(C2c3cc4c(cc3OC(N3CCCC3)C2C)OCO4)c1OC` (centres undefined) belongs more than 100 µM; to `N#CC(C#N)=C1CCCS(=O)(=O)c2ccccc21`, more than 100 µM.

In another assay the test system is SK-MEL-5 melanoma. Description: DTP human tumour cell line panel, 48 h.
Consider `C=CCCCC12CCCc3cccc(c31)NC2=O` (centres undefined), for which the total growth inhibition concentration (TGI) was determined as 34.2 µM.
`Cc1oc2nc(N(C)C)n3nnnc3c2c1C` showed a TGI of more than 100 µM.
On the same count and under the same terms, to `C[C@@H]1C[C@H](O)[C@]2(O)O[C@@H]3C[C@@]4(C=O)[C@@H](CC=C5[C@@H]4CC[C@]4(C)[C@@H](C6=CC(=O)OC6)CC[C@]54O)C[C@H]3O[C@@H]2O1` belongs 0.133 µM.
For the compound `Cc1nc(Cl)c(CBr)c(Cl)n1`, the TGI turned out to be 2.88 µM.
For the compound `N#CSCc1cccc(Nc2cc(=O)[nH]c(=O)[nH]2)c1`, the total growth inhibition concentration (TGI) turned out to be 99.1 µM. This TGI is about 34-fold higher than that of the compound before.
Turning to `COc1ccc2c(c1)C(=O)c1ccccc1C2`, the total growth inhibition concentration (TGI) was more than 100 µM.
As to `O=C1C(Cl)N(c2ccccc2)C1c1c[nH]c2ccccc12` (centres undefined), the total growth inhibition concentration (TGI) was more than 100 µM.
The same measure, in the same setting: to `O=c1nc2c(c(-c3cccc(Cl)c3)[nH]1)COC/C2=C\c1cccc(Cl)c1` belongs more than 100 µM; to `CC(C)/C(Cl)=N\OC(=O)NNc1ccccc1`, more than 54 µM.
The same measure, in the same setting: to `CN(O)C(=O)Cc1ccc(OCc2cccc(Cl)c2)cc1` belongs more than 100 µM; to `O=C(OCc1ccccc1)OOC(=O)OCc1ccccc1`, more than 100 µM; to `CC1=CC(=O)N(n2c(C)n[nH]c2=O)C1=O`, more than 100 µM.
Consider `CCN(CCCN(CC)C(=O)N[C@@H](Cc1ccccc1)C(=O)NC)C(=O)N[C@@H](Cc1ccccc1)C(=O)NC`, for which the total growth inhibition concentration (TGI) is more than 100 µM.
Same read-out and setting: to `C(=Nc1ccc(-c2nc3ccccc3s2)cc1)c1ccco1` belongs more than 100 µM; to `Cc1cc2cccc(Cl)c2nc1C(=O)c1ccccc1`, more than 100 µM.
Turning to `COC(=O)C1CC(C=[N+](C)C)=C(SC)N1` (centres undefined), the concentration for total growth inhibition (TGI) was more than 100 µM.
Still for that read-out and setting: to `O=c1c2cc(I)ccc2[nH]c(=S)n1Cc1ccccc1` belongs more than 100 µM.
With `COc1cccc(-c2nc(-c3cnccn3)n(Cc3ccccc3)n2)c1`, the TGI was more than 100 µM.
Still for that read-out and setting: to `N#Cc1c(OCCF)c2ccccc2n2c1nc1ccccc12` belongs more than 100 µM.
Same read-out and setting: to `CC(=O)/C(=C/n1c(=S)sc2ccccc21)C(=O)Nc1ccccc1C` belongs more than 100 µM; to `O=C(CCc1ccc(O)cc1)c1c(O)cc(O)cc1OC1OC(CO)C(O)C(O)C1O` (centres undefined), more than 100 µM.
For the compound `CC(C)=CC1C(C(=O)O)C1(C)C` (centres undefined), the TGI was more than 750 µM.
`CCOC(=O)C1CC(O)C(=O)N1C` (centres undefined) came in with a total growth inhibition concentration (TGI) of more than 100 µM.
`COc1cccc(C2c3cc4c(cc3OC(N3CCCC3)C2C)OCO4)c1OC` (centres undefined): the TGI is 12.5 µM.
Same read-out and setting: to `c1ccc(N=c2snc(-c3ccccc3)s2)cc1` belongs more than 100 µM; to `OCc1ccccc1C1CSCSC1`, more than 100 µM.

A further assay relates to KM12 colon. Description: DTP human tumour cell line panel, 48 h.
`C=CCCCC12CCCc3cccc(c31)NC2=O` (centres undefined) yielded a TGI of 35.6 µM.
Still for that read-out and setting: to `Cc1oc2nc(N(C)C)n3nnnc3c2c1C` belongs more than 100 µM; to `C[C@@H]1C[C@H](O)[C@]2(O)O[C@@H]3C[C@@]4(C=O)[C@@H](CC=C5[C@@H]4CC[C@]4(C)[C@@H](C6=CC(=O)OC6)CC[C@]54O)C[C@H]3O[C@@H]2O1`, 0.749 µM; to `Cc1nc(Cl)c(CBr)c(Cl)n1`, 2.72 µM.
`N#CSCc1cccc(Nc2cc(=O)[nH]c(=O)[nH]2)c1`: the TGI is more than 100 µM.
On the same count and under the same terms, the result for `COc1ccc2c(c1)C(=O)c1ccccc1C2` reads more than 100 µM.
Take `O=C1C(Cl)N(c2ccccc2)C1c1c[nH]c2ccccc12` (centres undefined): the concentration for total growth inhibition (TGI) is more than 100 µM.
`O=c1nc2c(c(-c3cccc(Cl)c3)[nH]1)COC/C2=C\c1cccc(Cl)c1` registered a concentration for total growth inhibition (TGI) of more than 100 µM.
Same read-out and setting: the result for `CC(C)/C(Cl)=N\OC(=O)NNc1ccccc1` reads more than 100 µM; that for `Cc1nc2nnc(C)n2c2c1C(=O)Nc1ccccc1N2`, more than 100 µM; that for `CN(O)C(=O)Cc1ccc(OCc2cccc(Cl)c2)cc1`, more than 100 µM.
With `O=C(OCc1ccccc1)OOC(=O)OCc1ccccc1`, the TGI is more than 100 µM.
Same read-out and setting: to `CC1=CC(=O)N(n2c(C)n[nH]c2=O)C1=O` belongs more than 100 µM; to `CCN(CCCN(CC)C(=O)N[C@@H](Cc1ccccc1)C(=O)NC)C(=O)N[C@@H](Cc1ccccc1)C(=O)NC`, more than 100 µM; to `C(=Nc1ccc(-c2nc3ccccc3s2)cc1)c1ccco1`, more than 100 µM.
Same read-out and setting: the result for `Cc1cc2cccc(Cl)c2nc1C(=O)c1ccccc1` reads more than 100 µM; that for `COC(=O)C1CC(C=[N+](C)C)=C(SC)N1` (centres undefined), more than 100 µM; that for `O=c1c2cc(I)ccc2[nH]c(=S)n1Cc1ccccc1`, more than 100 µM.
On to `COc1cccc(-c2nc(-c3cnccn3)n(Cc3ccccc3)n2)c1`, for which the TGI was more than 100 µM.
With `CC(=O)Nc1ccc(Cl)c(Cl)c1`, the TGI is more than 100 µM.
In turn, `N#Cc1c(OCCF)c2ccccc2n2c1nc1ccccc12` showed a concentration for total growth inhibition (TGI) of more than 100 µM.
For `CC(=O)/C(=C/n1c(=S)sc2ccccc21)C(=O)Nc1ccccc1C`, the concentration for total growth inhibition (TGI) was more than 100 µM.
Same read-out and setting: the result for `O=C(CCc1ccc(O)cc1)c1c(O)cc(O)cc1OC1OC(CO)C(O)C(O)C1O` (centres undefined) reads more than 100 µM; that for `CC(C)=CC1C(C(=O)O)C1(C)C` (centres undefined), more than 750 µM; that for `COc1cccc(C2c3cc4c(cc3OC(N3CCCC3)C2C)OCO4)c1OC` (centres undefined), 15.1 µM.

The values are drawn from PubChem BioAssay (NCI).
